Consider 11 molecules from paper PMC9964336, “Neosuberitenone, a New Sesterterpenoid Carbon Skeleton; New Suberitenones; and Bioactivity against Respiratory Syncytial Virus, from the Antarctic Sponge Suberites sp” (Marine Drugs, 2023).

Read-outs that look alike come from different tables or passages of the source.

Data set [1] relates to panel of tumor cell lines. Conditions: cited from earlier work.
A further data set deals with RSV. As to the kind of experiment: RSV antiviral assay (Renilla luciferase reporter virus rA2-Rluc in A549 cells). Type of data set: cell-based, respiratory syncytial virus. Conditions: for EC50 / IC50: human respiratory syncytial virus; for EC50: A549, read-out: EC50 against RSV (Table S12); for Selectivity Index: Selectivity index = CC50/IC50. The procedure:
A549 (CCL-185, ATCC) cells were seeded at 1.6 × 10^4 cells in 100 μL of 5% FBS/1X penicillin–streptomycin/F12 medium per well in 96-well µClear® black plates with a clear bottom (Greiner 655090). The cells were infected with 400 PFU/well of a recombinant RSV encoding Renilla luciferase as an additional transcription unit (rA2-Rluc) in a total volume of 50 µL/well and allowed to adsorb for 1 h. Purified compounds were serially diluted two-fold in triplicate and 50 µL/well of the diluted extracts were added to the infected cells. After further incubation at 37 °C and 5% CO2 for 24 h, the supernatants were removed and cells were lysed using Renilla lysis buffer (Promega). Luciferase activity was measured with the Renilla Luciferase reagent (Promega) and BioTek Synergy Mx microplate luminometer using Gen5 version 2.00.18 software. The RSV antiviral effect for the test samples was determined by normalizing to the DMSO-treated control samples and multiplying by 100 to obtain the percent of control. Statistical analysis was performed using GraphPad Prism software version 9.4.1.
In general terms: In a reporter assay the amount or activity of a reporter protein is the signal.

Data set [2] can be described thus: Cytotoxicity assay (MTT) in uninfected A549 cells. Type of data set: cell-based. The settings on record: human, means ± SEM of triplicate samples. The procedure:
To test for cell viability, duplicate 96-well plates of uninfected A549 cells were set up in parallel with the RSV antiviral assay. Extracts were diluted and used to treat cells as described above for the RSV antiviral assay. The negative control for cytotoxicity was 2% DMSO while the positive was 2 μM (final concentration) of PDKI inhibitor. After the 24 h incubation period, the cells were processed for an MTT Proliferation Assay (Provost and […] Research) according to the manufacturer's protocol. Absorbance at 570 nm was measured by a microplate luminometer and standardized to control as above. Two percent DMSO and 2 μM PDK1 inhibitor (CalBioChem) were used as negative and positive controls for cell death, respectively. Statistical analysis was performed using GraphPad Prism software version 9.4.1.

A further data set concerns ESKAPE pathogens. Nature of the data set: Antibacterial screen. The data set is classed as cell-based.
Another data set has as its system Candida strains. Nature of the data set: Antifungal screen. Type of data set: cell-based. Conditions: several Candida strains.
Data set [3] is described as follows: Stability in solution (NMR / reversed-phase HPLC observation). The data set is classed as physicochemical. The settings on record: CDCl3, NMR solvent. How it is done:
While NMR data were collected on purified suberitenone I (6), the signals decreased in intensity while those of a new species grew in intensity. […] Thus, suberitenone J (7) is the oxaspiro-ring-opened isomer, existing in equilibrium with 6. When the two were separated by reversed-phase HPLC, both reverted to an equilibrium mixture of ~3:1 6:7 over 24 h.

The next data set relates to HIV gene expression. Also noted: method as in PMID 27768313. Conditions: cited from earlier work.
The test system of a further data set is MRSA. More on the design: method as in doi:10.1021/jo00128a034, PMID 15104501, doi:10.1016/j.tetlet.2004.04.091, doi:10.1016/j.tetlet.2018.07.055. Conditions: cited from earlier work.
Where [4] appears, read: A549, 24 h, read-out: IC50 (RSV antiviral).
[5] abbreviates: A549, read-out: IC50 (RSV antiviral, text).

Take 19-episuberitenone B: in data set [1], the “cytotoxicity against a panel of tumor cell lines” value is given as “weak cytotoxicity”.

As a reminder, the EC50 is the concentration at which the effect is half-maximal. Turning to `CC(=O)OC1CC2(C)C=C3C4CC(=O)C(C)(CC4O)C3CC2C2(C)CCCC(C)(C)C12` (stereo not drawn) [Compound 1, Neosuberitenone A], the viral inhibitory effects entry in the data set with RSV (at 25 µg/mL) is “did not show any viral inhibitory effects”. Besides, the concentration for a half-maximal effect (EC50) in the data set with RSV was above 50 µM.

Broadly, the IC50 is the midpoint of a concentration-inhibition curve. What is called CC50 is the concentration giving 50% cytotoxicity. A lower CC50 goes with greater toxicity to the cells. As for `CC(=O)OC1CC2(C)C(CCC3(C4CC(=O)C(C)=CC4O)OC23)C2(C)CCCC(C)(C)C12` (stereo not drawn) [Compound 2, Suberitenone E], in the data set with RSV, the “Selectivity Index” value worked out at 4.3 and the EC50 came to 20.5 µM. For the same molecule, in the data set on RSV (setting [4]), the IC50 was determined as 20.5 ± 0.7 µM. The molecule further registered a 50% cytotoxic concentration (CC50) at 24 h in data set [2] of 87.3 ± 38.1 µM.

As for `CC(=O)OC1CC2(C)C(O)C(C3CC(=O)C(C)=CC3O)=CCC2C2(C)CCCC(C)(C)C12` (stereo not drawn) [Compound 3, Suberitenone F], the antibacterial activity result in the data set on ESKAPE pathogens is “inactive”. Also, in the data set with RSV, the “activity against RSV (in words)” value is recorded as “active”, the “Selectivity Index” value was 3.7 and the EC50 was found to be 9.8 µM. Further, the IC50 with RSV (setting [4]) was 9.8 ± 1.4 µM. The molecule further came in with a CC50 at 24 h in data set [2] of 36 ± 5.3 µM. Moreover, the antifungal activity entry in the data set with Candida strains is “inactive”.

For the molecule `CC(=O)O[C@@H]1C[C@@]2(C)C(=O)C([C@H]3CC(=O)C(C)=C[C@H]3O)=CCC2[C@@]2(C)CCCC(C)(C)C12` (stereo partly drawn) [Compound 4, Suberitenone G], in data set [3], the “stability in CDCl3” value was “decomposition was observed”. Moreover, in the data set with RSV, the “Selectivity Index” value amounted to 3.7 and the EC50 was 11 µM. The IC50 in the data set with RSV (setting [4]) is 11 ± 1.3 µM. For the same molecule, in data set [2], the CC50 at 24 h turned out to be 40.7 ± 8.3 µM.

Regarding `COC1C(C)C(=O)CC(C2(O)CCC3C(C)(CC(OC(C)=O)C4C(C)(C)CCCC43C)C2)C1O` (stereo not drawn) [Compound 5, Suberitenone H], in the data set on RSV, the “Selectivity Index” value is recorded as 4.7 and the EC50 worked out at 10.9 µM. Further, the IC50 in the data set with RSV (setting [4]) turned out to be 10.9 ± 1.8 µM. Half-maximal cytotoxicity in data set [2] (CC50 at 24 h) was put at 51.1 ± 17.5 µM.

Regarding `CC(=O)OC1CC2(C)C=C(C3CC(=O)C(C)=CC3O)CCC2C2(C)CCCC(C)(C)C12` (stereo not drawn) [Compound 10, suberitenone A], in the data set with ESKAPE pathogens, the antibacterial activity result is “inactive”. Besides, in the data set with RSV, the “activity against RSV (in words)” value is “active”, the “Selectivity Index” value came to 4.3 and the EC50 is 7.9 µM. In the data set on RSV (setting [4]), the IC50 is 7.8 ± 0.2 µM. Besides, in the data set on RSV (setting [5]), the IC50 came out at 7.9 µM. In data set [2], this molecule registered a CC50 at 24 h of 33.3 ± 1.3 µM. In addition, the antifungal activity result in the data set with Candida strains is “inactive”.

Consider `CC(=O)OC1CC2(C)CC(O)(C3CC(=O)C(C)=CC3O)CCC2C2(C)CCCC(C)(C)C12` (stereo not drawn) [Compound 11, suberitenone B], for which the antibacterial activity entry with ESKAPE pathogens is “inactive”. In addition, in the data set with RSV, the “activity against RSV (in words)” value is “active”, the “Selectivity Index” value amounted to 21.1 and the EC50 is 3.5 µM. In addition, the IC50 in the data set on RSV (setting [4]) amounted to 3.2 ± 0.4 µM. For the same molecule, in the data set on RSV (setting [5]), the IC50 worked out at 3.5 µM. The midpoint of cytotoxicity in data set [2], the CC50 at 24 h, lay at 67.6 ± 16.3 µM. Also, the antifungal activity entry with Candida strains was “inactive”.

Turning to anvilone A, the HIV gene expression entry with HIV gene expression was “turned on HIV gene expression”.

As to isosuberitenone B, the “cytotoxicity against a panel of tumor cell lines” value in data set [1] is “weak cytotoxicity”.

As for oxaspirosuberitenone, the “antibacterial activity against MRSA” value in the data set on MRSA is “mild antibacterial activity”.
